Patent publication US20230110378A1, “MONOBACTAM COMPOUND AND USE THEREOF” (EVOPOINT BIOSCIENCES CO., LTD., priority 2019, published 2023)
≈ marks a conversion by molar mass, not a printed value.

What was measured:
[1] = tested on: Enterobacter cloacae HDBECL 30030; assay: Minimum inhibitory concentration (broth microdilution, CLSI); assay type: cell-based; settings: HDBECL30030
Procedure: (§1) 103 bacterial strains used for the minimum inhibitory concentration test were frozen in a −80° C. ULT freezer and thawed 2 days before use. A small amount of frozen microorganism bacteria were scraped using a sterile inoculating loop, streaked onto a suitable solid culture dish for inoculation, and then cultured for about 20 h at 35 t 2° C. in a normal incubator. • Proteus mirabilis HDBPM 40: MA, normal atmospheric environment • The remaining 102 strains of bacteria: TSA, normal atmospheric environment
(§2) 5-10 colonies with similar morphology were picked from the culture dish using a sterile inoculating loop and then re-streaked onto a corresponding solid culture dish. Then the dish was incubated in a normal incubator at 35 t 2° C. for about 20 h.
(§3) 5-10 single microbial colonies were picked from the solid culture dish, resuspended in 500 μL of sterile normal saline (0.9% NaCl), and adjusted to an OD600 of about 0.15 with a spectrophotometer.
(§4) The bacteria were then diluted 300-fold with 1.02×CAMHB to an inoculation concentration of 2×10^5 CFU/mL.
(§5) • There were a total of 3 assay plate patterns, one of which was used for each assay. • 8 rows of the assay plate (rows A-H) were for 8 test compounds, respectively. The highest test concentration of the compounds was 16, 32 or 64 μg/mL, and each compound was diluted 2-fold. • Growth control (GC): a medium containing microbial inoculum (1.02×CAMHB) and dimethylsulfoxide (DMSO) but no compound.
(§6) The test and reference compounds were dissolved in DMSO or H2O to prepare 6.4 mg/mL stock solutions. The stock solutions were diluted to prepare standby solutions with certain concentrations, and the volumes of the standby solutions were determined according to the experimental design. Corresponding volumes of the standby solutions were transferred to the starting wells of a dilution plate (A1-H1), and half the starting-well volume of DMSO to the other wells. Each compound was diluted 2-fold sequentially from column 1 to column 11 (e.g., transferring 30 μL of DMSO to columns 2-12 first, then pipetting 30 μL of the compounds from column 1 to column 2 and mixing them well, then pipetting 30 μL of the compounds from column 2 to column 3 and mixing them well, then pipetting 30 μL of the compounds from column 3 to column 4 and mixing them well, and so on to column 11).
(§7) 1 or 2 μL of the compounds and DMSO were transferred from the compound plate to corresponding wells of the assay plates.
(§8) 98 μL of corresponding bacterial inocula were added to the assay plates.
(§9) After addition, the assay plates were covered with sterile covers. The mixtures in the assay plates were centrifuged in a centrifuge at 800 rpm for 30 s, mixed well on a microplate shaker at 400 rpm for 1 min, and incubated in a normal incubator at 35 t 2° C. for 20-24 h.
(§10) The assay plates were placed on a plate reading device, and the speculum was adjusted to observe and record the growth condition of bacteria in each well. In the mean time, each assay plate was photographed with QCount system.
(§11) The minimum inhibitory concentration of each compound was recorded by reference to guidelines from the Clinical and Laboratory Standards Institute.
(§12) The minimum inhibitory concentrations of the compounds against experimental strains were tested in this study by reference to the medium microdilution method as indicated by the Clinical and Laboratory Standards Institute. Compounds were diluted two-fold in 96-well plates from the highest detection concentration of 16, 32 or 64 μg/mL. The bacterial inocula in the assay plates were thawed from corresponding medium plates and diluted in 1.02×CAMHB, while growth controls (GC wells) were set up in the assay plates. The minimum inhibitory concentration of each compound against different bacteria was observed and recorded after the assay plates were incubated in a normal incubator at 35 t 2° C. for about 20 h. The minimum inhibitory concentration values for the different compounds are listed in the list below.

[2] = tested on: Escherichia coli HDBEC 30008; assay: as above; assay type: cell-based; settings: HDBEC30008
Procedure: as §1, §2, §3, §4, §5, §6, §7, §8, §9, §10, §11, §12

[3] = tested on: Escherichia coli HDBEC 30016; assay: as above; assay type: cell-based; settings: HDBEC30016
Procedure: as §1, §2, §3, §4, §5, §6, §7, §8, §9, §10, §11, §12

[4] = tested on: Escherichia coli HDBEC 30048; assay: as above; assay type: cell-based; settings: HDBEC30048
Procedure: as §1, §2, §3, §4, §5, §6, §7, §8, §9, §10, §11, §12

[5] = tested on: Klebsiella pneumoniae HDBKP 30006; assay: as above; assay type: cell-based; settings: HDBKP30006
Procedure: as §1, §2, §3, §4, §5, §6, §7, §8, §9, §10, §11, §12

[6] = tested on: Klebsiella pneumoniae HDBKP 9153; assay: as above; assay type: cell-based; settings: HDBKP9153
Procedure: as §1, §2, §3, §4, §5, §6, §7, §8, §9, §10, §11, §12

[7] = tested on: Klebsiella pneumoniae HDBKP 9249; assay: as above; assay type: cell-based; settings: HDBKP9249
Procedure: as §1, §2, §3, §4, §5, §6, §7, §8, §9, §10, §11, §12

[8] = tested on: Proteus mirabilis HDBPM 40; assay: as above; assay type: cell-based; settings: HDBPM40
Procedure: as §1, §2, §3, §4, §5, §6, §7, §8, §9, §10, §11, §12

[9] = tested on: Pseudomonas aeruginosa HDBPA 5679; assay: as above; assay type: cell-based; settings: HDBPA5679
Procedure: as §1, §2, §3, §4, §5, §6, §7, §8, §9, §10, §11, §12

[10] = Pharmacokinetic evaluation of compounds in mice (tail vein injection); assay type: in vivo, Male CD-1 (ICR) mice; settings: CD-1 (ICR), mouse, male CD-1 mice, intravenous injection, dose 10 mg/kg, plasma; for half-life: read-out: T½ (converted); for Vd: read-out: Vss
Procedure: Male CD-1 (ICR) mice were purchased and then acclimatized in this laboratory for at least 3 days. […] Blood samples were collected from the saphenous vein at 0.0833 h, 0.25 h, 0.5 h, 1 h, 2 h, 4 h, 8 h and 24 h following the tail vein injection administration. The volume of blood collection at each time point of the blood collection was about 30 μL. The blood samples were placed in centrifuge tubes containing anticoagulant EDTA-K2 and centrifuged at 3,200 g at 4° C. for 10 min, and then the upper plasma samples were collected and preserved in a freezer at −70±10° C. for later tests.
1) To 1.5 mL centrifuge tubes were added a 6 μL aliquot of an unknown sample, a standard curve, a quality control, a dilution quality control, single blank and double blank samples.
2) Each sample (except for the double blank sample) was treated with 120 μL of IS1-containing precipitant (the double blank sample was treated with 120 μL of pure MeOH for precipitation), and the mixtures were well mixed (for at least 15 s) using a vortexer and centrifuged at 12,000 g at 4° C. for 15 min.
3) 60 μL of the supernatants were transferred to a 96-well plate and centrifuged at 4° C. at 3220 g for 5 min, and 6 p L of the supernatants were injected for LC-MS/MS quantitative analysis.
1) The 1 h-plasma samples from the 3 mice were diluted 10-fold: 2 p L of the samples were added to 18 p L of blank matrix.
2) The 0.0833 h to 0.5 h-plasma samples from the 3 mice were diluted 100-fold: 18 μL of blank matrix was added to 2 p L of the samples to obtain 10-fold diluted samples. 2 μL of the 10-fold diluted samples were added to 18 p L of blank matrix to obtain 100-fold diluted analysis samples.
LC-MS/MS analysis conditions: chromatography column: ACQUITY UPLC HSS T3 (2.1×50 mm, 1.8 μm); column temperature: 50° C.; mobile phase A: a 0.1% aqueous solution of formic acid; mobile phase B: a 0.1% solution of formic acid in acetonitrile; flowrate: 0.65 mL/min. Internal standard: verapamil (100 ng/mL)
The concentration of the compounds in plasma was measured by LC-MS/MS (LC-MS/MS-AK_Q-Trap 6500). The pharmacokinetic software WinNonlin [version: Phoenix™ WinNonlin®6.3, manufacturer: Pharsight Corporation] was used to calculate pharmacokinetic parameters (V-Noncompartmental model 201).

Row | Structure (SMILES) | MIC [1] | MIC [2] | MIC [3] | MIC [4] | MIC [5] | MIC [6] | MIC [7] | MIC [8] | MIC [9] | AUC [10] | clearance [10] | half-life [10] | Vd [10]
1 | CC(C)(O/N=C(\C(=O)N[C@@H]1C(=O)N(S(=O)(=O)O)[C@@H]1CNC(=O)c1cc([C@@H]2CCN(CCNC(=O)c3ccc(O)c(O)c3Cl)C2)no1)c1csc(N)n1)C(=O)O [Compound I-35] | < 4 µg/mL | < 4 µg/mL | < 4 µg/mL | < 4 µg/mL | < 4 µg/mL | < 4 µg/mL | 4 to 8 µg/mL (≈ 4.83 to 9.66 µM) | < 4 µg/mL | < 4 µg/mL | 8530 ng·h/mL | 19.5 mL/min/kg | 1.43 h | 0.57 L/kg
2 | CC(C)(O/N=C(\C(=O)N[C@@H]1C(=O)N(S(=O)(=O)O)[C@@H]1CNC(=O)c1cnc([C@@H]2CC[N+](C)(C[C@H](N)CNC(=O)c3ccc(O)c(O)c3Cl)C2)s1)c1csc(N)n1)C(=O)O (some centres unmarked) [Compound I-38] | < 4 µg/mL | < 4 µg/mL | < 4 µg/mL | < 4 µg/mL | 8 to 16 µg/mL | < 4 µg/mL | 8 to 16 µg/mL | < 4 µg/mL | < 4 µg/mL | – | – | – | –
3 | CC(C)(O/N=C(\C(=O)N[C@@H]1C(=O)N(S(=O)(=O)O)[C@@H]1CNC(=O)c1cc([C@@H]2CCN(CCNC(=O)c3cc(=O)c(O)c[nH]3)C2)no1)c1csc(N)n1)C(=O)O [Compound I-39] | < 4 µg/mL | < 4 µg/mL | > 16 µg/mL | < 4 µg/mL | 8 to 16 µg/mL (≈ 10.1 to 20.1 µM) | < 4 µg/mL | 8 to 16 µg/mL (≈ 10.1 to 20.1 µM) | < 4 µg/mL | < 4 µg/mL | – | – | – | –
4 | CC(C)(O/N=C(\C(=O)N[C@@H]1C(=O)N(S(=O)(=O)O)[C@@H]1CNC(=O)c1cc([C@@H]2CCN(CCNC(=O)c3cc(=O)c(O)cn3O)C2)no1)c1csc(N)n1)C(=O)O [Compound I-40] | < 4 µg/mL | < 4 µg/mL | < 4 µg/mL | < 4 µg/mL | 8 to 16 µg/mL (≈ 9.87 to 19.7 µM) | < 4 µg/mL | 8 to 16 µg/mL (≈ 9.87 to 19.7 µM) | < 4 µg/mL | < 4 µg/mL | – | – | – | –
5 | CC(C)(O/N=C(\C(=O)N[C@@H]1C(=O)N(S(=O)(=O)O)[C@@H]1CNC(=O)c1cnc([C@@H]2CCN(CCNC(=O)c3ccc(O)c(O)c3Cl)C2)s1)c1csc(N)n1)C(=O)O [Compound I-41] | < 4 µg/mL | < 4 µg/mL | < 4 µg/mL | < 4 µg/mL | < 4 µg/mL | < 4 µg/mL | 4 to 8 µg/mL (≈ 4.74 to 9.48 µM) | < 4 µg/mL | < 4 µg/mL | – | – | – | –
6 | CC(C)(O/N=C(\C(=O)N[C@@H]1C(=O)N(S(=O)(=O)O)[C@@H]1CNC(=O)c1cnc(C2=CC(CCCNC(=O)c3ccc(O)c(O)c3Cl)N=C2)s1)c1csc(N)n1)C(=O)O (some centres unmarked) [Compound I-42] | < 4 µg/mL | < 4 µg/mL | < 4 µg/mL | < 4 µg/mL | < 4 µg/mL | < 4 µg/mL | 8 to 16 µg/mL (≈ 9.36 to 18.7 µM) | < 4 µg/mL | < 4 µg/mL | – | – | – | –
7 | Cc1c(O)c(=O)cc(C(=O)N2CC[C@@H](c3cc(C(=O)NC[C@@H]4[C@H](NC(=O)/C(=N\OC(C)(C)C(=O)O)c5csc(N)n5)C(=O)N4S(=O)(=O)O)on3)C2)n1O [Compound I-43] | < 4 µg/mL | < 4 µg/mL | < 4 µg/mL | < 4 µg/mL | 8 to 16 µg/mL (≈ 10.2 to 20.5 µM) | < 4 µg/mL | 8 to 16 µg/mL (≈ 10.2 to 20.5 µM) | < 4 µg/mL | < 4 µg/mL | 9660 ng·h/mL | 17.3 mL/min/kg | 0.59 h | 0.24 L/kg
8 | Cc1c(C(=O)NCCN2CC[C@@H](c3cc(C(=O)NC[C@@H]4[C@H](NC(=O)/C(=N\OC(C)(C)C(=O)O)c5csc(N)n5)C(=O)N4S(=O)(=O)O)on3)C2)n(O)c(C)c(O)c1=O [Compound I-45] | < 4 µg/mL | < 4 µg/mL | 8 to 16 µg/mL (≈ 9.54 to 19.1 µM) | < 4 µg/mL | 8 to 16 µg/mL (≈ 9.54 to 19.1 µM) | < 4 µg/mL | 8 to 16 µg/mL (≈ 9.54 to 19.1 µM) | < 4 µg/mL | < 4 µg/mL | – | – | – | –
9 | Cc1c(O)c(=O)cc(C(=O)NCCCn2cc(-c3ncc(C(=O)NC[C@@H]4[C@H](NC(=O)/C(=N\OC(C)(C)C(=O)O)c5csc(N)n5)C(=O)N4S(=O)(=O)O)s3)cn2)n1O [Compound I-46] | < 4 µg/mL | < 4 µg/mL | < 4 µg/mL | < 4 µg/mL | 8 to 16 µg/mL (≈ 9.39 to 18.8 µM) | < 4 µg/mL | 8 to 16 µg/mL (≈ 9.39 to 18.8 µM) | < 4 µg/mL | < 4 µg/mL | – | – | – | –
